Source: US20250250227A1, “AMINO LIPID COMPOUND, PREPARATION METHOD THEREFOR, COMPOSITION THEREOF AND USE THEREOF” (SHENZHEN SHENXIN BIOTECHNOLOGY CO., LTD., priority 2022, published 2025)

Columns and labels:
Female BALB/c mice [1] = experiment: In vivo safety of hEPO mRNA lipid nanoparticle: serum alanine aminotransferase (ALT) enzyme activity; settings: hEPO mRNA LNP, 300 μL IV, serum 12 h after injection; FIG. 1
Procedure: A human erythropoietin mRNA (hEPO mRNA)-encapsulating lipid nanoparticle formulation was prepared according to the method as described in Experimental Example 1, with replacing the luciferase mRNA (Fluc mRNA) with human erythropoietin mRNA (hEPO mRNA), with a concentration of hEPO mRNA of 0.2 g/L, a mass ratio of hEPO mRNA to Lipid of 1:10, a particle size of 90-130 nm, and an encapsulation efficiency of above 90% or higher.
(§1) Animal preparation: Female BALB/c mice of 6-8 weeks old were selected and raised in an SPF grade breeding room. Animal testing was conducted in strict accordance with the guidelines of national health institutions and animal ethics requirements.
In vivo Delivery: Prior to injection of the test LNP formulations, the LNP formulations were gently and repeatedly inverted to thoroughly mix the formulation samples. A corresponding amount of the formulation samples were aspirated with a 1 ml insulin syringe, and the LNP formulations were injected by tail vein injection (IV), with 5 mice per formulation. Each mouse was injected with 300 μL of the human erythropoietin mRNA (hEPO mRNA)-encapsulating lipid nanoparticle formulation.
Serum acquisition: Blood samples of mice were collected 12 h after injection, placed in tubes without anticoagulants, and naturally coagulated at room temperature for 30-60 min, and then centrifuged at a speed of 3500 rpm for 10 min to obtain the supernatant, which was the serum.
The detection of alanine transaminase was carried out according to instructions of the kit (Nanjing Jiancheng Bioengineering Institute, Catalog. No. C009-2-1), and a standard curve was made using the standard provided in the kit. D-PBS was used in the experiment, which was purchased from Sangon Biotech (Shanghai) Co., Ltd., Catalog No. E607009-0600.
The method of detection of enzyme activity of alanine aminotransferase (ALT) in serum of the mice is as follows:
• (1) Enzymatic reaction: 0, 2, 4, 6, 8 and 10 μL of […] sodium pyruvate standard solution were sequentially added to 5 μL of 0.1 mol/L phosphate buffer, and the volume was supplemented to 25 μL with a matrix solution, and repeatedly aspirating and spitting with a pipette for mixing well; • (2) Addition reaction: 20 μL 2,4-dinitrophenylhydrazine solution was added to all reaction wells in (1), mixed by aspirating and spitting, and then placed in an incubator at 37° C. to react for 20 min; • (3) Developing: 200 μL of 0.4 mol/L NaOH solution was added to all reaction wells in (2) to stop the reaction, mixed by aspirating and spitting, and incubated at room temperature for 15 min. The OD value of each well was measured at 510 nm in a microplate reader; and • (4) Data processing of standard curve: The corresponding absolute OD value for each well was obtained by subtracting the OD value for 0 μL well from the measured OD value for each well, the corresponding ALT Karmen units being 0, 28, 57, 97, 150 and 200 U/L, respectively. The standard curve was obtain by taking the absolute OD value as the abscissa and the corresponding Karmen unit as the ordinate.
• (1) Reagent preparation: an ALT matrix solution was placed in an incubator at 37° C. for preheating; • (2) Enzymatic reaction: 5 μL diluted serum was aspirated and added to a 96-well plate, then 20 μL matrix solution was added to the corresponding sample well and mixed by repeatedly aspirating and spitting to avoid bubbling, and then placed in an incubator at 37° C. for 30 min; • (3) Addition reaction: 20 μL 2,4-dinitrophenylhydrazine was added to all reaction wells in (2), mixed by aspirating and spitting, and then reacted in an incubator at 37° C. for 20 min; • (4) Developing: 200 μL of 0.4 mol/L NaOH solution was added to all reaction wells in (3) to stop the reaction, mixed by aspirating and spitting, and then incubated at room temperature for 15 min. […]

[2] = Preparation and characterisation of mRNA-encapsulating lipid nanoparticle (encapsulation efficiency, particle size); assay type: physicochemical; settings: LNP encapsulating Fluc mRNA; Lipid:DSPC:CHO-HP:M-DMG-2000 48:10:40.5:1.5
Procedure: A specified amount of Fluc mRNA stock solution, 0.2 M sodium acetate buffer, and DEPC water were added to a container, and mixed well to obtain a water phase;
The amino lipid compound of the present disclosure, a helper lipid, a structural lipid, and a PEG-lipid were separately dissolved in absolute ethanol to prepare respective solutions at concentrations of 20 mg/mL, 10 mg/mL, 20 mg/mL, and 25 mg/mL, respectively. The above four solutions were pipetted at a molar ratio of Lipid:DSPC:CHO—HP:M-DMG-2000 of 48:10:40.5:1.5, and mixed well to prepare an alcohol phase. • (2) Encapsulation: The water phase and the alcohol phase were injected into a microfluidic chip at a flow rate of water phase: alcohol phase=12 mL/min: 4 mL/min by using a microfluidic preparation instrument (MPE-L2), and encapsulation was carried out at a flow rate of water phase: alcohol phase=9 mL/min: 3 mL/min to obtain mRNA-encapsulating lipid nanoparticle (mRNA-LNP). • (3) Dialysis: The product of step (2) was loaded in a dialysis bag and placed in a Tris Buffer-8% sucrose solution for replacement to remove ingredients such as residual ethanol, unassembled lipids. Dialysis was conducted for 2 h with magnetic stirring at room temperature and under protection from light (dialysate was replaced every 1 hour). • (4) The product of step (3) was sterilized by passing through a […] microporous membrane, and then packaged.
Lipid nanoparticle formulations encapsulating Fluc mRNA were prepared, with a concentration of Fluc mRNA of 0.2 g/L, a mass ratio of Fluc mRNA to Lipid of 1:10, a particle size of 80-130 nm, and a encapsulation efficiency of 85% or higher.
The encapsulation efficiency of the lipid nanoparticle encapsulating luciferase mRNA (Fluc mRNA) with a representative amino lipid compound and the fluorescence expression intensity induced by the same are shown in Table 4, with the amino lipid compound 118 as a control. […]

Female BALB/c mice [3] = experiment: Performance evaluation of in vivo delivery of Fluc mRNA lipid nanoparticle (IVIS, body and organs); settings: Fluc mRNA LNP; for Liver (fluorescence expression intensity) / Spleen (fluorescence expression intensity): 75 μL IV; for Liver (fluorescence expression intensity) / Spleen (fluorescence expression intensity) / Total flux (fluorescence expression intensity) / (Spleen/Total Flux) * 100%: 6 hours after injection; for Liver (fluorescence expression intensity) / Spleen (fluorescence expression intensity) / Total flux (fluorescence expression intensity): IVIS; for Total flux (fluorescence expression intensity): 75 μL tail vein injection (IV); for (Spleen/Total Flux) * 100% / Multiple of spleen delivery/total delivery to amino lipid compound 118: IV; for Multiple of spleen delivery/total delivery to amino lipid compound 118: relative to amino lipid compound 118
Procedure: as §1
In vivo Delivery: prior to injection of the test LNP formulations, the LNP formulations were gently and repeatedly inverted to thoroughly mix the formulation samples. A corresponding amount of the formulation samples were aspirated with a 1 ml insulin syringe, and the LNP formulations were injected by tail vein injection (IV), with 3 mice in duplicate per formulation. Each mouse was injected with 75 μL of the luciferase mRNA (Fluc mRNA)-encapsulating lipid nanoparticle formulation prepared in Experimental Example 1.
6 hours after injection of LNP formulations, mice were injected with 200 μL D-Luciferin luciferase developing substrate (Catalog No. 122799; Manufacturer: Perkin Elmer). After the substrate was injected, the mice were anesthetized with isoflurane inhalation, and the injection time of luciferase developing substrate was recorded.
The encapsulation efficiency of the lipid nanoparticle encapsulating luciferase mRNA (Fluc mRNA) with a representative amino lipid compound and the fluorescence expression intensity induced by the same are shown in Table 4, with the amino lipid compound 118 as a control.
The multiple of spleen delivery/total delivery of fluorescence expression intensity induced by lipid nanoparticle encapsulating luciferase mRNA (Fluc mRNA) with a representative amino lipid compound to amino lipid compound 118 is shown in Table 5.

Female BALB/c mice [4] = experiment: Humoral immunity test for total binding IgG antibody (ELISA, SARS-COV-2 antigen protein) in serum of immunized mice; assay type: in vivo; settings: IN002.5.1 mRNA LNP, 50 μL IM, serum on 14th day after immunization; FIG. 5-6
Female BALB/c mice [5] = experiment: IFN-γ Elispot cellular immunity test, spleen lymphocytes of mice immunized with IN002.5.1 mRNA LNP; assay type: in vivo; settings: 50 μL IM, spleen on 7th day after immunization, FIG. 2-4
Procedure: An IN002.5.1 mRNA-encapsulating lipid nanoparticle formulation was prepared according to the method as described in Experimental Example 1, with replacing the luciferase mRNA (Fluc mRNA) with IN002.5.1 mRNA, with a concentration of IN002.5.1 mRNA of 0.2 g/L, a mass ratio of IN002.5.1 mRNA to Lipid of 1:10, a particle size of 80-130 nm, and an encapsulation efficiency of 90% or higher.
The sequence of IN002.5.1 mRNA is one obtained by replacing all uracil (u) in SEQ ID NO. 1 with N1-methylpseudouridine. Of note is that the t (thymine) in the RNA sequence, SEQ ID NO. 1, in the Sequence Listing is actually u (uracil), according to the WIPO Standard ST. 26 for nucleotide or amino acid sequence listing.
as §1
Immunization of mice: Prior to injection of the test LNP formulations, the LNP formulations were gently and repeatedly inverted to thoroughly mix the formulation samples. A corresponding amount of the formulation samples were aspirated with a 1 ml insulin syringe, and the LNP formulations were injected by intramuscular injection (IM) […], with 8 mice per formulation. Each mouse was injected with 50 μL of the IN002.5.1 mRNA encapsulating lipid nanoparticle formulation.
Spleen acquisition: On the 7th day after immunization, 3 to 4 mice from each LNP immunization group were selected and euthanized, and their spleens were acquired in a super clean bench.
Isolation of lymphocytes: The spleens of mice were taken out in a super clean bench. 7 mL of mouse lymphocyte separation solution was added to a 6-well cell culture plate. Mouse spleen cells were ground with a syringe piston, and the suspension of the spleen cells was filtered through a cell screen and immediately transferred to a 15 mL centrifuge tube. […] RPMI 1640 medium was slowly added with keeping the liquid interface distinct. After centrifugation at 800 g with a horizontal rotor at room temperature for 30 minutes, a clear stratification can be visible. The lymphocyte layer was aspirated, then added with 10 mL RPMI 1640 medium, and inverted for washing. The cells were collected by centrifugation at 250 g for 10 min at room temperature, and the red blood cells were lysed. After completing lysis of red blood cells, the supernatant was poured, and the cells were resuspended in culture medium and counted.
Addition of stimulant and culture of lymphocyte: RPMI-1640 medium containing 10% fetal bovine serum was used to activate the pre-coated plate. After standing at room temperature for at least 30 min, the medium was removed, and a cell suspension at adjusted concentration was added ([…]). The medium used to resuspend the cells was used as a background negative control. 10 μL positive stimulant working solution (PMA+Ionomycin (dissolved in DPBS) was added to a positive control well; […] medium used to resuspend the cells was added to a negative control well; 10 µL/well of a peptide library diluted with RPMI 1640 was added to experimental wells. After all samples and the stimulant were added, the plate was covered, incubated in an incubator with 5% CO2 at 37° C. for 16-24 h.
Elispot detection after culture: The cells and the culture medium in the wells were dumped, and the wells were lysed with 200 μL/well of ice-cold deionized water at 4° C. for 10 min. The liquid in the wells were shaken out, and the wells were washed five times with PBS buffer. The wells were incubated with 100 μL/well of 1 μg/ml detection antibody for 2 h at room temperature; and after washing the plate 5 times with PBS, the wells were incubated with 100 μL/well of 1000-fold diluted enzyme labeled avidin (Streptavidin-HRP) for 1 h at room temperature. […]

CCCCCCC(CCCCCC)OC(=O)CCCCCCCCC(CCCCCCCCC(=O)OC(CCCCCC)CCCCCC)OC(=O)N(CCCCCC(=O)OCCCC)CCCN(C)C [Compound 252]
ALT enzyme activity (Karmen unit) compared to ALC0315 and SM-102 (Female BALB/c mice [1]): significantly lower ALT enzyme activity

CCCCCCC(CCCCCC)OC(=O)CCCCCCCCC(CCCCCCCCC(=O)OC(CCCCCC)CCCCCC)OC(=O)N(CCCCC(=O)OCCCC)CCCN(C)C [Compound 255]
ALT enzyme activity (Karmen unit) compared to ALC0315 and SM-102 (Female BALB/c mice [1]): significantly lower ALT enzyme activity

CCCCCCC(CCCCCC)OC(=O)CCCCCCCCC(CCCCCCCCC(=O)OC(CCCCCC)CCCCCC)OC(=O)N(CCCC(=O)OCCCC)CCCN(C)C [Compound 259]
Encapsulation efficiency [2]: 94.08%
Liver (fluorescence expression intensity) (Female BALB/c mice [3]): 1.37E+08
Spleen (fluorescence expression intensity) (Female BALB/c mice [3]): 1.29E+07
Total flux (fluorescence expression intensity) (Female BALB/c mice [3]): 6.40E+08
(Spleen/Total Flux) * 100% (Female BALB/c mice [3]): 2.02%
Multiple of spleen delivery/total delivery to amino lipid compound 118 (Female BALB/c mice [3]): 5.93
ALT enzyme activity (Karmen unit) compared to ALC0315 and SM-102 (Female BALB/c mice [1]): significantly lower ALT enzyme activity

CCCCCCC(CCCCCC)OC(=O)CCCCCCCCC(CCCCCCCCC(=O)OC(CCCCCC)CCCCCC)OC(=O)N(CCCC(=O)OCCCCC)CCCN(C)C [Compound 260]
Encapsulation efficiency [2]: 95.36%
Liver (fluorescence expression intensity) (Female BALB/c mice [3]): 9.60E+07
Spleen (fluorescence expression intensity) (Female BALB/c mice [3]): 3.27E+06
Total flux (fluorescence expression intensity) (Female BALB/c mice [3]): 4.11E+08
(Spleen/Total Flux) * 100% (Female BALB/c mice [3]): 0.80%
Multiple of spleen delivery/total delivery to amino lipid compound 118 (Female BALB/c mice [3]): 2.34
ALT enzyme activity (Karmen unit) compared to ALC0315 and SM-102 (Female BALB/c mice [1]): significantly lower ALT enzyme activity

CCCCCCC(CCCCCC)OC(=O)CCCCCCCCC(CCCCCCCCC(=O)OC(CCCCCC)CCCCCC)OC(=O)N(CCCN(C)C)CC(=O)OCCC [Compound 269]
Humoral immunity effect (IgG titer) compared to ALC0315 (Female BALB/c mice [4]): better humoral immunity effect

CCCCCCC(CCCCCC)OC(=O)CCCCCCCCC(CCCCCCCCC(=O)OC(CCCCCC)CCCCCC)OC(=O)N(CCCCC(=O)OC(C)CC)CCCN(C)C (stereo not shown) [Compound 302]
Cellular immunity effect (IFN-γ Elispot) compared to ALC0315 (Female BALB/c mice [5]): better cellular immunity effect

CCCCCCC(CCCCCC)OC(=O)CCCCCCCCC(CCCCCCCCC(=O)OC(CCCCCC)CCCCCC)OC(=O)N(CCCC(=O)OC(C)C)CCCN(C)C [Compound 307]
Cellular immunity effect (IFN-γ Elispot) compared to ALC0315 (Female BALB/c mice [5]): better cellular immunity effect
